The source of these data is patent US8697739B2, “Bicyclic acetyl-CoA carboxylase inhibitors and uses thereof” (Novartis AG, priority 2010, dated 2014).

Bounds are passed on as bounds.

For this assay, the target named is T1, human acetyl-CoA carboxylase 2 (ACC2) (Homo sapiens, UniProt O00763).
T1 construct: The cDNA encoding amino acids 144 to 2458 of human acetyl-CoA carboxylase 2; made in house; host or cells: Sf9 insect cells (baculovirus, pFastBac1)
T1 sequence (O00763 144-2458): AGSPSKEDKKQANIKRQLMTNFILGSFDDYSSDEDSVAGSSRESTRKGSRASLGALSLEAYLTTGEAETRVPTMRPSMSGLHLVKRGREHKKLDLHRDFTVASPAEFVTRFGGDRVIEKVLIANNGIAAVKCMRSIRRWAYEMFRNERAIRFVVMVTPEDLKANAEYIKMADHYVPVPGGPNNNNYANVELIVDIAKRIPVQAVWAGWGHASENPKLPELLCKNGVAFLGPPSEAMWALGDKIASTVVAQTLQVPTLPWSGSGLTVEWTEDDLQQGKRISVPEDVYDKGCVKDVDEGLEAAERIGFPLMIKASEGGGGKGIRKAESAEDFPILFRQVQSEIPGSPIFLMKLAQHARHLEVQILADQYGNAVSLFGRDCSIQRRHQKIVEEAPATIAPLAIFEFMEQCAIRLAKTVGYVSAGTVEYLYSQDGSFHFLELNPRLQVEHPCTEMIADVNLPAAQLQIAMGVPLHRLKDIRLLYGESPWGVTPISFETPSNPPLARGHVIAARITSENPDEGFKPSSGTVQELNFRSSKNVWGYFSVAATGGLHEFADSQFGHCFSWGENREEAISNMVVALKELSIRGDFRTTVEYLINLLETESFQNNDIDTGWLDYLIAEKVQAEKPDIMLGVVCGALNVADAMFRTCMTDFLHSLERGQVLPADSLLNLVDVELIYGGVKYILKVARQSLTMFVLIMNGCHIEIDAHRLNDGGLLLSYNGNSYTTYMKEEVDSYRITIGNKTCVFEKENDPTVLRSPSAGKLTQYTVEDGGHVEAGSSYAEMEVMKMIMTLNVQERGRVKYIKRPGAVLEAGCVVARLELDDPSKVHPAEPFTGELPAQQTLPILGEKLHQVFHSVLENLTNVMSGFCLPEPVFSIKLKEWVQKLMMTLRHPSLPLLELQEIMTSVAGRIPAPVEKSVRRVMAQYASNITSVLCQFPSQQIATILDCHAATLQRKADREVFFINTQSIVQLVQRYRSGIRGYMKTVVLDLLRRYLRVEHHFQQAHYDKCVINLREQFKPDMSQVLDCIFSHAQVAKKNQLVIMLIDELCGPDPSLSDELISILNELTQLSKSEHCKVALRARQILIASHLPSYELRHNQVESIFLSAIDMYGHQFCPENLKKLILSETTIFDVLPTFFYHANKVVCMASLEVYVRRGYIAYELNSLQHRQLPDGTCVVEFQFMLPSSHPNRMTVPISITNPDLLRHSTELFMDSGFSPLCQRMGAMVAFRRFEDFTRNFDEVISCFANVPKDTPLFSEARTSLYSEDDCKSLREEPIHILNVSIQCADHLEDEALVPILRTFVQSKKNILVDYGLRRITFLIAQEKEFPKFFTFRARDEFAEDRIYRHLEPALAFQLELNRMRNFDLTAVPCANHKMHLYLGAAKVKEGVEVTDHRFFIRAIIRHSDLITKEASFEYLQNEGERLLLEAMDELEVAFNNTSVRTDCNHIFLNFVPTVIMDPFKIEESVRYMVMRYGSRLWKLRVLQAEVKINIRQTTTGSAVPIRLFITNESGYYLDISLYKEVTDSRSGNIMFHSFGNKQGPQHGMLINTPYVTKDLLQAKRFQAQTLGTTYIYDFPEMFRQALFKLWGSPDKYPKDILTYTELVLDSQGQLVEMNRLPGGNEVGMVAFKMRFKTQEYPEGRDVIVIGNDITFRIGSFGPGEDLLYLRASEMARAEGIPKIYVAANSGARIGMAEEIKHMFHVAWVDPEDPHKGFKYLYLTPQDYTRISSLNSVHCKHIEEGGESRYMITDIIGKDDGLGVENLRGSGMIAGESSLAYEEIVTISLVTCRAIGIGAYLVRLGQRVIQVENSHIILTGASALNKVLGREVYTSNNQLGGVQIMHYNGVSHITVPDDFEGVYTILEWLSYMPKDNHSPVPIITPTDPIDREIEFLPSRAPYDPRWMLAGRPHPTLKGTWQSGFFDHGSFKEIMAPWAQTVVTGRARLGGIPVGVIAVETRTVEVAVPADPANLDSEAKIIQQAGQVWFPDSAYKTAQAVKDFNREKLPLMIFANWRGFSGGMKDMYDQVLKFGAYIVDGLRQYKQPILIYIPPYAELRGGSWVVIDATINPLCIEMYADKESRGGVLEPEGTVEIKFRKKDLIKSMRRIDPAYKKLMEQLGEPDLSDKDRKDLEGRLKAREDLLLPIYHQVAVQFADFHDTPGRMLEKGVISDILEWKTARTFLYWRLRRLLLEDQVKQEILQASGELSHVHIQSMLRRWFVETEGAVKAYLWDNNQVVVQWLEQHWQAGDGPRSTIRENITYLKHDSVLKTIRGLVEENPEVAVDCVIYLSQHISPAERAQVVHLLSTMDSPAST
Briefly: Acetyl-CoA carboxylase enzyme assay (malonyl-CoA formation by LC/MS/MS). In kind it is biochemical. To be noted: recombinant human ACC2 (aa 144-2458); read-out: IC50 ACC2. The method in brief: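 Malonyl-CoA formation was read by LC/MS/MS MRM against a [13C3]-malonyl-CoA internal standard, after acetic acid quench. The enzyme was baculovirus/Sf9-expressed human ACC2 residues 144–2458, given 15 minutes room-temperature compound preincubation in HEPES pH 7.5 buffer with MgCl2, citrate and DTT. Substrate solution held 50 μM acetyl-CoA, 120 μM ATP and 2 mM KHCO3.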
As to `COC(=O)N1CCNc2ccc(S(=O)(=O)NC3CCC(C(=O)NC(C)c4ccc(F)cc4)CC3)cc21` [Example 221, methyl 7-(N-((1R,4r)-4-((R)-1-(4-fluorophenyl)ethylcarbamoyl)cyclohexyl)sulfamoyl)-3,4-dihydroquinoxaline-1(2H)-carboxylate], the 50% inhibitory concentration (IC50) is below 10 nM. For `O=C(C1CCC(NS(=O)(=O)c2ccc3cc(-c4ccccc4C(F)(F)F)[nH]c3c2)CC1)N1CCNC(C(F)(F)F)C1` (stereo not shown) [Example 334, 2-(2-(trifluoromethyl)phenyl)-N-((1r,4r)-4-(3-(trifluoromethyl)piperazine-1-carbonyl)cyclohexyl)-1H-indole-6-sulfonamide], the concentration for half-maximal inhibition (IC50) was determined as 1420 nM. For `COCc1ccc(-c2cc3ccc(S(=O)(=O)N[C@H]4CC[C@H](C(=O)N5CCOC[C@@H]5C5CC5)CC4)cc3n2C)cc1` [Example 456, N-((1S,4r)-4-((S)-3-cyclopropylmorpholine-4-carbonyl)cyclohexyl)-2-(4-(methoxymethyl)phenyl)-1-methyl-1H-indole-6-sulfonamide], the IC50 is below 10 nM. For `C[C@H]1CN(C)CCN1C(=O)[C@H]1CC[C@H](NS(=O)(=O)c2ccc3cc(-c4ccccc4)n(C)c3c2)CC1` [Example 412, N-((1S,4r)-4-((S)-2,4-dimethylpiperazine-1-carbonyl)cyclohexyl)-1-methyl-2-phenyl-1H-indole-6-sulfonamide], the 50% inhibitory concentration (IC50) came to 240 nM. On to `CCOC(=O)[C@H]1CCCN1C(=O)[C@H]1CC[C@H](NS(=O)(=O)c2ccc3cc(-c4ccccc4)n(C)c3c2)CC1` [Example 420, (R)-ethyl 1-((1r,4R)-4-(1-methyl-2-phenyl-1H-indole-6-sulfonamido)cyclohexanecarbonyl)pyrrolidine-2-carboxylate], for which the IC50 came to 720 nM. Turning to `CN1CCN(C(=O)[C@H]2CC[C@H](NS(=O)(=O)c3cnc4ccccc4c3)CC2)C(c2ccccc2)C1` (stereo partly shown) [Example 47, N-((1r,4r)-4-(4-methyl-2-phenylpiperazine-1-carbonyl)cyclohexyl)quinoline-3-sulfonamide], the IC50 stood at 4220 nM.

On to `CC(C)OC(=O)[C@H]1CC[C@H](NS(=O)(=O)c2ccc3[nH]c(-c4ccc(N5CCN(C)CC5)cc4)nc3c2)CC1` [Example 557, (1r,4r)-isopropyl 4-(2-(4-(4-methylpiperazin-1-yl)phenyl)-1H-benzo[d]imidazole-5-sulfonamido)cyclohexanecarboxylate], for which the IC50 was 13 nM. As for `C[C@@H](NC(=O)[C@H]1CC[C@H](NS(=O)(=O)c2cnc3c(c2)N(C)[C@@H]2CCCC[C@H]2N3C)CC1)c1ccc(F)cc1` [Example 139, (1R,4R)-4-((5aR,9aR)-5,10-dimethyl-5,5a,6,7,8,9,9a,10-octahydropyrido[3,2-b]quinoxaline-3-sulfonamido)-N-((R)-1-(4-fluorophenyl)ethyl)cyclohexanecarboxamide], the 50% inhibitory concentration (IC50) amounted to 16 nM. As for `C[C@@H](NC(=O)[C@H]1CC[C@H](NS(=O)(=O)c2ccc3c(c2)NCCN3)CC1)c1ccc(F)cc1` [Example 149, (1r,4R)-N-((R)-1-(4-fluorophenyl)ethyl)-4-(1,2,3,4-tetrahydroquinoxaline-6-sulfonamido)cyclohexanecarboxamide], the concentration for half-maximal inhibition (IC50) was determined as 290 nM. For the compound `CC(NC(=O)[C@H]1CC[C@H](NS(=O)(=O)c2cnc3ccccc3c2)CC1)c1ccc(F)cc1F` (stereo partly shown) [Example 67, (1r,4r)-N-(1-(2,4-difluorophenyl)ethyl)-4-(quinoline-3-sulfonamido)cyclohexanecarboxamide], the 50% inhibitory concentration (IC50) was 240 nM. As for `CC(C)(C)c1nnc([C@H]2CC[C@H](NS(=O)(=O)c3ccc4[nH]c(-c5cccnc5)nc4c3)CC2)o1` [Example 653, N-((1r,4r)-4-(5-tert-butyl-1,3,4-oxadiazol-2-yl)cyclohexyl)-2-(pyridin-3-yl)-1H-benzo[d]imidazole-5-sulfonamide], the 50% inhibitory concentration (IC50) turned out to be 2030 nM. `CN1CCN(C)c2ncc(S(=O)(=O)N[C@H]3CC[C@H](C(=O)N4CCN(C(=O)OCc5ccccc5)CC4c4ccccc4)CC3)cc21` (stereo partly shown) [Example 180, benzyl 4-((1r,4r)-4-(1,4-dimethyl-1,2,3,4-tetrahydropyrido[3,2-b]pyrazine-7-sulfonamido)cyclohexanecarbonyl)-3-phenylpiperazine-1-carboxylate]: the IC50 amounted to 138 nM. As for `O=C([C@H]1CC[C@H](NS(=O)(=O)c2cnc3ccccc3c2)CC1)N1CCCC1C(F)(F)F` (stereo partly shown) [Example 48, N-((1r,4r)-4-(2-(trifluoromethyl)pyrrolidine-1-carbonyl)cyclohexyl)quinoline-3-sulfonamide], the IC50 was 32800 nM. `CC(C)CCNC(=O)[C@H]1CC[C@H](NS(=O)(=O)c2ccc3[nH]c(-c4ccccc4)nc3c2)CC1` [Example 630, (1r,4r)-N-isopentyl-4-(2-phenyl-1H-benzo[d]imidazole-5-sulfonamido)cyclohexanecarboxamide]: the half-maximal inhibitory concentration (IC50) came to 781 nM. In the case of `C[C@@H](NC(=O)[C@H]1CC[C@H](NS(=O)(=O)c2ccc3c(c2)cc(-c2ccccc2)n3C)CC1)c1ccc(F)cc1` [Example 14, (1r,4R)—N—((R)-1-(4-fluorophenyl)ethyl)-4-(1-methyl-2-phenyl-1H-indole-5-sulfonamido)cyclohexanecarboxamide], the IC50 stood at 10 nM. For the compound `CCOc1ccc2cc(S(=O)(=O)N[C@H]3CC[C@](C)(C(=O)N[C@H](C)c4ccc(F)cc4)CC3)ccc2n1` [Example 231, (1r,4R)-4-(2-ethoxyquinoline-6-sulfonamido)-N-((R)-1-(4-fluorophenyl)ethyl)-1-methylcyclohexanecarboxamide], the IC50 was 10 nM. For the compound `Cn1c(C2CC2)cc2ccc(S(=O)(=O)N[C@H]3CC[C@H](C(=O)N4CCCC(C(C)(C)O)C4)CC3)cc21` (stereo partly shown) [Example 368, 2-cyclopropyl-N-((1r,4r)-4-(3-(2-hydroxypropan-2-yl)piperidine-1-carbonyl)cyclohexyl)-1-methyl-1H-indole-6-sulfonamide], the half-maximal inhibitory concentration (IC50) worked out at 145 nM. Take `O=C([C@H]1CC[C@H](NS(=O)(=O)c2ccc3cc(-c4ccccc4)[nH]c3c2)CC1)N1CCCCC1` [Example 375, 2-phenyl-N-((1r,4r)-4-(piperidine-1-carbonyl)cyclohexyl)-1H-indole-6-sulfonamide]: the half-inhibitory concentration (IC50) is 75 nM. For the compound `C[C@@H]1CN(C(=O)[C@H]2CC[C@H](NS(=O)(=O)c3ccc4cc(-c5ccccc5)n(C)c4c3)CC2)C[C@H](C)O1` [Example 419, N-((1R,4r)-4-((2S,6R)-2,6-dimethylmorpholine-4-carbonyl)cyclohexyl)-1-methyl-2-phenyl-1H-indole-6-sulfonamide], the concentration for half-maximal inhibition (IC50) is 35 nM.

`Cc1cc(CO)ccc1-c1cc2ccc(S(=O)(=O)N[C@H]3CC[C@H](C(=O)N4CCCCC4)CC3)cc2[nH]1` [Example 314, 2-(4-(hydroxymethyl)-2-methylphenyl)-N-((1r,4r)-4-(piperidine-1-carbonyl)cyclohexyl)-1H-indole-6-sulfonamide]: the 50% inhibitory concentration (IC50) was found to be 60 nM. As to `Cn1c(C2CC2)c(C#N)c2ccc(S(=O)(=O)N[C@H]3CC[C@H](C(=O)N4CCOCC4)CC3)cc21` [Example 23, 3-cyano-2-cyclopropyl-1-methyl-N-((1r,4r)-4-(morpholine-4-carbonyl)cyclohexyl)-1H-indole-6-sulfonamide], the IC50 came to 150 nM. As to `C[C@@H](NC(=O)[C@H]1CC[C@H](NS(=O)(=O)c2ccc3[nH]c([C@H]4CCCO4)nc3c2)CC1)c1ccc(F)cc1` [Example 117, (1r,4R)-N-((R)-1-(4-fluorophenyl)ethyl)-4-(2-((R)-tetrahydrofuran-2-yl)-1H-benzo[d]imidazole-5-sulfonamido)cyclohexanecarboxamide], the IC50 is 574 nM. For `O=C([C@H]1CC[C@H](NS(=O)(=O)c2cnc3c(c2)NCCN3)CC1)N1CCOCC1c1ccccc1` (stereo partly shown) [Example 194, N-((1r,4r)-4-(3-phenylmorpholine-4-carbonyl)cyclohexyl)-1,2,3,4-tetrahydropyrido[3,2-b]pyrazine-7-sulfonamide], the IC50 amounted to 210 nM.

For `CC(C)N(C)C(=O)[C@H]1CC[C@H](NS(=O)(=O)c2ccc3[nH]c(-c4ccc(N5CCN(C)CC5)cc4)nc3c2)CC1` [Example 564, (1r,4r)-N-isopropyl-N-methyl-4-(2-(4-(4-methylpiperazin-1-yl)phenyl)-1H-benzo[d]imidazole-5-sulfonamido)cyclohexanecarboxamide], the half-inhibitory concentration (IC50) stood at 27 nM. For `CC(NC(=O)C1CCC(NS(=O)(=O)c2cnc3c(c2)NC2CCCCC2N3)CC1)c1ccc(F)cc1` [Example 162, (1S,4R)-N-((R)-1-(4-fluorophenyl)ethyl)-4-((5aS,9aS)-5,5a,6,7,8,9,9a,10-octahydropyrido[3,2-b]quinoxaline-3-sulfonamido)cyclohexanecarboxamide] the value was 125 nM; for `Cn1c(-c2ccc(CCC(=O)O)cc2)c(Cl)c2ccc(S(=O)(=O)N[C@H]3CC[C@H](C(=O)N4CCCCC4)CC3)cc21` [Example 361, 3-(4-(3-chloro-1-methyl-6-(N-((1r,4r)-4-(piperidine-1-carbonyl)cyclohexyl)sulfamoyl)-1H-indol-2-yl)phenyl)propanoic acid], 10 nM.

Turning to `C[C@@H](NC(=O)C12CC3CC(C1)C(NS(=O)(=O)c1cnc4c(c1)NCCN4)C(C3)C2)c1ccc(F)cc1` (stereo partly drawn) [Example 262, 4-(1,2,3,4-Tetrahydro-pyrido[2,3-b]pyrazine-7-sulfonylamino)-adamantane-1-carboxylic acid [(R)-1-(4-fluoro-phenyl)-ethyl]-amide], the concentration for half-maximal inhibition (IC50) came to 20 nM. For `C[C@@H](NC(=O)[C@H]1CC[C@H](NS(=O)(=O)c2cnc3ccccc3c2)CC1)c1ccccc1F` [Example 58, (1r,4R)-N-((R)-1-(2-fluorophenyl)ethyl)-4-(quinoline-3-sulfonamido)cyclohexanecarboxamide] the value was 185 nM.

By IC50 is commonly meant the concentration that gives 50% inhibition.
